The values that follow come from US10011552B2, “Process for preparation of herbicidal carboxylic acid salts” (ROTAM AGROCHEM INTERNATIONAL COMPANY LIMITED, priority 2013, dated 2018).

Structures are written as SMILES.

The data set can be described thus: pH value of the dried carboxylic acid salt in water. The format is physicochemical. The conditions noted are these: dried salt cake dissolved in water.

Regarding `Cc1cc(Cl)ccc1OCC(=O)[O-].[K+]` [MCPA-potassium], the “pH value in water” value was determined as 9.

For `O=C(O)c1nc(Cl)ccc1Cl.OCCNCCO` [clopyralid-bis(2-hydroxyethyl)ammonium], the “pH value in water” value is 8.

For the molecule `COc1c(Cl)ccc(Cl)c1C(=O)[O-].[Na+]` [dicamba-sodium], the “pH value in water” value amounted to 7.

In the case of `O=C([O-])c1c(Cl)ccc2cc(Cl)cnc12.[Na+]` [quinclorac-sodium], the “pH value in water” value came to 10.
